The subject of this assay is A549 cells. Description: EGF promoted colony formation assay of A549 single cells in DW device. Conditions: 200 ng mL-1 EGF in DMEM with 10% FBS, 7 days of culture, colonies >15 cells per culture-well, control medium 12.10%. Format: cell-based, human. Here is the method: In the EGF promoted colony formation assay, 200 μL of A549 cells at a concentration of 2.2-2.5×10^6 cells per mL was injected into the DW device manually and allowed to settle for 2 min, followed by injecting DMEM with 20% FBS and 1% antibiotics into the microchannel immediately to wash off excess cells in the channel at a flow rate of 600 μL min^−1 for 30 s. Subsequently, the inlet and outlet holes were sealed and the device was flipped upside down to obtain a single cell in a culture-well. The device was then placed in a humidified incubator at 37° C. with 5% CO2 as described above. After 1 day of culture, one of the device (for the control experiment) was injected with 300 μL of DMEM containing 10% FBS and 1% antibiotics to replace the original medium. […] Colonies with cell numbers higher than 15 cells in a culture-well were scored as cell colonies.
Due to its high single-cell capture efficiency and large space of culture wells, the DW device represents an attractive tool for in vitro single-cell colony formation assays in which the growth of individual cells is analyzed. […] The portability and transparency of the DW device allowed the cells in the device to be conveniently analyzed with a conventional microscope during cell culture experiments (FIGS. 7A-D). […]

From patent US20170145363A1, “MICROFLUIDIC DUAL-WELL DEVICE FOR HIGHTHROUGHPUT SINGLE-CELL CAPTURE AND CULTURE” (NATIONAL HEALTH RESEARCH INSTITUTES, priority 2015, published 2017) come the findings set out here.

On to “EGF: epithelial growth factor (EGF, PeproTech, USA) supplied in the culture medium at 200 ng mL-1”, for which the colony forming efficiency came to 17.56%.
